Measurements: PubChem BioAssay AID652053 (Broad Institute, 2013)

Test system: Huh7 psiCHECK-miR122 Renilla luciferase reporter, 48 h
Test: miR-122 inhibitors in Huh7 reporter cells, dose response, cell-based, Huh7 psiCHECK-miR122, Renilla luciferase, cherry-pick (AID 652053)

| SMILES | AC40 [µM] |
| --- | --- |
| COc1ccccc1S(=O)(=O)Nc1cccc(S(=O)(=O)N2CCCC2)c1 | 1.26 |
| CC(=O)Nc1ccc2c(c1)C(=O)N(C)[C@H]1CC[C@@H](CC(=O)NCc3ccc(Cl)cc3)O[C@H]1CO2 | 11 |
| O=C(Cc1ccccc1)N1C[C@@H]2[C@H](c3ccccc31)[C@H](CO)N2C(=O)Nc1ccc(F)cc1 | 4.71 |
| CCCCOCCCNC(=S)Nc1ccc(S(=O)(=O)N2CCOCC2)cc1 | 11 |
| Cc1c(C(=O)OC2CCCC2)[nH]c2c1C(=O)CC(c1ccco1)C2 (stereo not given) | 5.77 |
| COc1ccc(NS(=O)(=O)c2cc(NC(=O)c3ccco3)ccc2N2CCCCC2)cc1 | < 0.26 |
| C[C@H](CO)N1C[C@H](C)[C@@H](CN(C)Cc2ccc(C(F)(F)F)cc2)Oc2c(NC(=O)C3CCCCC3)cccc2C1=O | 0.596 |
| CN1c2ccc(-c3cccc(F)c3)cc2[C@H]2[C@H](CCN2S(=O)(=O)c2cccc(F)c2)[C@H]1CO | 6.4 |
| COc1cc(C)c(Cl)c(C)c1S(=O)(=O)NCc1cccnc1 | 2.3 |
| Cc1ccc(S(=O)(=O)NCC[C@@H]2CC[C@@H](NC(=O)c3cnccn3)[C@H](CO)O2)cc1 | 10.2 |
| Cc1ccc(NS(=O)(=O)c2cc(C(=O)NCCSC3CCCCC3)ccc2C)cc1 | 4.68 |
| Cc1ccc(C(C)C)cc1S(=O)(=O)NCc1ccccn1 | 1.38 |
| C[C@H](CO)N1C[C@H](C)[C@@H](CN(C)Cc2ccc(C(F)(F)F)cc2)Oc2c(NC(=O)C3CC3)cccc2C1=O | 0.387 |
| Cc1ccc(C(C)C)cc1S(=O)(=O)NC1CC(C)(C)NC(C)(C)C1 | 8.18 |
| COc1ccccc1NS(=O)(=O)c1cc(C(=O)NCc2ccco2)ccc1C | 13.5 |
| COc1ccc(NC(=O)c2cc(C)nc3ccccc23)cc1S(=O)(=O)Nc1ccccc1Cl | 2.33 |
| C[C@@H]1CN([C@@H](C)CO)C(=O)c2cccc(NC(=O)C3CC3)c2O[C@@H]1CN(C)Cc1ccc(C(=O)Nc2ccccc2N)cc1 | 3.72 |
| Cc1cccc(NS(=O)(=O)c2ccc(-c3cnc(C4CC4)o3)cc2)c1 | 2.13 |
| C[C@H](CO)N1C[C@H](C)[C@@H](CN(C)Cc2ccc(Cl)c(Cl)c2)Oc2c(NS(=O)(=O)c3ccccc3)cccc2C1=O | 2.54 |
| C[C@@H]1CN([C@@H](C)CO)C(=O)Cc2cc(N(C)C)ccc2O[C@H]1CN(C)Cc1ccc(C(=O)Nc2ccccc2N)cc1 | 10.1 |
| FC(F)Sc1ccc(NC(=S)NC2CCCCC2)cc1 | 4.16 |
| COc1cccc(CN(C(=O)Cc2c[nH]c3ccccc23)C(C(=O)NC2CCCCC2)c2cccs2)c1 (stereo not given) | 6.05 |
| C[C@@H]1CN([C@H](C)CO)C(=O)c2cc(NC(=O)Cc3ccccc3)ccc2O[C@@H]1CN(C)S(=O)(=O)c1ccc(Cl)cc1 | 1.31 |
| COc1ccc(S(=O)(=O)N(C)C[C@H]2Oc3ccc(NC(=O)Nc4ccc(C(F)(F)F)cc4)cc3C(=O)N([C@@H](C)CO)C[C@H]2C)cc1 | 8.41 |
| Cc1ccc(OC(C)C(=O)Nc2ccc(C)c(S(=O)(=O)Nc3ccc(C)cc3C)c2)cc1 (stereo not given) | 12.5 |

| SMILES | AC40 [µM] |
| --- | --- |
| O=S(=O)(c1ccccc1)c1cc(O)ccc1O | 11.5 |
| COc1ccc(C(=O)N2C[C@@H]3[C@H](c4ccccc42)[C@H](CO)N3Cc2ccc3c(c2)OCO3)cc1 | 5.57 |
| COc1ccc(-c2cc(C)no2)cc1S(=O)(=O)NCC(C)c1ccccc1 (stereo not given) | 2.74 |
| C[C@H](CO)N1C[C@H](C)[C@H](CN(C)Cc2ccc(C(=O)Nc3ccccc3N)cc2)Oc2ccc(NC(=O)NC3CCCCC3)cc2CC1=O | 16.2 |
| Cc1cc(C)cc(NS(=O)(=O)c2cc(Br)cnc2N)c1 | 0.656 |
| COc1ccc(-c2cc(C)no2)cc1S(=O)(=O)Nc1cccc(C)c1 | 0.83 |
| COc1ccc(N2CCN(C(=O)c3csc4ccccc34)CC2)cc1 | 15.9 |
| COc1ccc(NS(=O)(=O)c2cc(NC(=O)c3cccc(OCc4c(C)noc4C)c3)ccc2OC)cc1 | 2.57 |
| COc1cc(S(=O)(=O)NC2CCCC2)c(OC)cc1Cl | 2.6 |
| CCN(CC)c1ccc(NC(=O)c2cnccn2)cc1S(=O)(=O)Nc1ccc(OC)cc1 | 0.976 |
| O=C(NC1CCCC1)C(c1ccccc1F)N(C(=O)Cc1cccs1)c1ccc2c(c1)OCCO2 (stereo not given) | 25.9 |
| COC(=O)C1CC23C=CCN4CCC5(c6ccccc6NC15C2C)C43 (stereo not given) | 20.1 |
| COc1ccc(C(=O)Nc2ccc(S(=O)(=O)NCc3ccco3)cc2)cc1OC | 4.75 |
| CSc1nc(-c2ccc(C)cc2)[nH]c1S(=O)(=O)c1ccccc1 | 15.9 |
| CCOc1ccc(Br)cc1S(=O)(=O)Nc1cccc(S(=O)(=O)N(CC)CC)c1 | 7.75 |
| CCCNC(=O)NC[C@@H]1[C@@H](c2ccc(C3=CCCC3)cc2)[C@H](CO)N1C(=O)CC | 5.75 |
| COc1ccc(NS(=O)(=O)c2cc(NC(=O)c3ccc(=O)[nH]n3)ccc2C)cc1 | 5.01 |
| O=C1NC(c2cccc3ccccc23)Nc2ccccc21 (stereo not given) | 5.65 |
| CCOC(=O)/C(=N/Nc1ccc(Cl)cc1)S(=O)(=O)c1ccccc1 | 3.28 |
| Cc1ccc(C)c(S(=O)(=O)Nc2ccc(C(=O)N3CCCCC3)cc2)c1 | 3.58 |
| CCc1cccc(NS(=O)(=O)c2ccc3c(c2)NC(=O)CO3)c1 | 7 |
| O=S(Cc1ccccc1)CC(O)(c1ccc(Cl)cc1)c1ccc(Cl)cc1 (stereo not given) | 10.5 |
| Nc1ncc(Br)cc1S(=O)(=O)NCCc1ccccc1 | 0.647 |
| Cc1ccc(-c2ccc3c(c2)O[C@H](CN(C)Cc2ccc(F)cc2)[C@@H](C)CN([C@H](C)CO)S3(=O)=O)cc1 | 5.46 |
| CCOc1cc(C)c(S(=O)(=O)NC2CCCCC2)cc1C | 1.49 |

| SMILES | AC40 [µM] |
| --- | --- |
| CCCCNS(=O)(=O)c1ccc2nc(SCC(N)=O)[nH]c2c1 | 6.07 |
| COc1cccc(NS(=O)(=O)c2ccc3c(c2)N(C(C)=O)CCO3)c1 | 3.67 |
| O=C(Cc1ccccc1)N1C[C@H]2[C@@H](c3ccccc31)[C@@H](CO)N2C(=O)C1CCCCC1 | 6.07 |
| Cc1c(C(=O)N2CCCCC2)c(S(=O)(=O)Nc2cccc(Br)c2)c(C)n1C | 1.44 |
| COc1ccc(NC(=O)Nc2ccc3c(c2)C(=O)N([C@H](C)CO)C[C@@H](C)[C@@H](CN(C)S(=O)(=O)c2ccc(OC)cc2)O3)cc1 | 1.21 |
| COc1ccccc1NS(=O)(=O)c1cc(NC(=O)CCC2CCCC2)ccc1N1CCOCC1 | 1.45 |
| COc1ccc(-c2c(O)c(C#N)c(-c3ccccc3)n(-c3ccc(OC)cc3)c2=O)cc1 | 20 |
| Cc1ccc(NS(=O)(=O)c2cccc(C(=O)N(C)Cc3cccs3)c2)cc1 | 3.04 |
| O=C(NCCCn1ccnc1)c1cccc(S(=O)(=O)Nc2ccc(F)cc2)c1 | 3.77 |
| O=S(=O)(NC(=NCc1ccccc1)c1ccc(F)cc1)c1ccc(Cl)cc1 | 13.7 |
| O=S(=O)(NCC1CCCO1)c1cc(Br)c(Br)s1 (stereo not given) | 4 |
| CCOc1ccc(Br)cc1S(=O)(=O)NC1CCCC1 | 1.29 |
| COc1ccc(S(=O)(=O)Nc2ccc(-c3ccc4nnc(C)n4n3)cc2)c(OC)c1 | 4.03 |
| CC(C)CC(=O)Nc1cccc(-c2nc3ccccc3[nH]2)c1 | 15.6 |
| COc1ccc(NS(=O)(=O)c2cc(NC(=O)Cc3c(F)cccc3Cl)ccc2OC)cc1 | 3.67 |
| O=C(N/N=C/c1cccs1)C(O)c1ccccc1 (stereo not given) | 15.2 |
| Cc1ccc(NC(=O)C(OC(=O)c2ccc(F)cc2)c2ccccc2)cc1Cl (stereo not given) | 2.85 |
| CCOc1ccc(NS(=O)(=O)c2ccc(NC(=S)NC(=O)C(C)C)cc2)cc1 | 5.48 |
| CC(C)Oc1ccc(C(=O)Nc2ccc(Cl)c(S(=O)(=O)Nc3ccc(Cl)cc3)c2)cc1 | 0.559 |
| Cc1cc(C)cc(NS(=O)(=O)c2ccc3c(c2)C(C)(C)C(=O)N3C)c1 | 1.21 |
| Cc1ccc(S(=O)(=O)NC(=NCc2ccccc2)c2ccc(F)cc2)cc1 | 5.08 |
| Cc1ccc(C(=O)Nc2ccccc2-c2ccccc2)cc1S(=O)(=O)Nc1ccccc1 | 3.64 |
| CN(C)S(=O)(=O)c1ccc(NS(=O)(=O)/C=C/c2ccccc2)cc1 | 2.27 |
| CCc1cccc2c(C(=O)CN3C(=O)NC4(CCCCC4)C3=O)c[nH]c12 | 6.01 |
| Cc1cccc(NS(=O)(=O)c2ccc(C3CCCCC3)cc2)c1 | 13.2 |

| SMILES | AC40 [µM] |
| --- | --- |
| CCOc1cc(C)c(C(C)C)cc1S(=O)(=O)n1ccc(C)n1 | 7.45 |
| O=S(=O)(NCc1cccnc1)c1ccc(Cl)c2ccccc12 | 4.69 |
| O=C(Nc1ccc(S(=O)(=O)NCc2ccccc2)cc1)Nc1ccc2c(c1)OCO2 | 2.08 |
| CSc1ccc(S(=O)(=O)Nc2ccc(F)cc2)cc1 | 5.15 |
| N#Cc1c(NC(=O)c2ccccc2)sc2c1CCC2 | 29 |
| COc1cccc(C(=O)N2C[C@H]3[C@@H](c4ccccc42)[C@@H](CO)N3C(=O)c2ccc(F)cc2)c1 | 2.16 |
| C[C@H](CO)N1C[C@H](C)[C@@H](CN(C)C(=O)Nc2ccc(F)cc2)Oc2c(NS(=O)(=O)c3ccccc3)cccc2C1=O | 20.4 |
| CCOC(=O)c1ccc(S(=O)(=O)NC2CCCCCCC2)n1C | 3.76 |
| COc1ccc(Cl)cc1N(CC(=O)N1CCCC1)S(=O)(=O)c1ccc(C)cc1 | 2.49 |
| CCOC(=O)c1cc(S(=O)(=O)NCCc2ccccc2)cn1C | 3.84 |
| CCOCC(=O)Nc1c(C(=O)N2CCN(c3ncccn3)CC2)oc2ccccc12 | 0.431 |
| COc1ccc(S(=O)(=O)N2CC[C@@H]3[C@H](CO)N(C)c4ccc(-c5ccc(F)cc5)cc4[C@@H]32)cc1 | 7.49 |
| O=S(=O)(Nc1ccc2cn[nH]c2c1)c1cc(Br)ccc1Br | 4.32 |
| CSc1ccc(S(=O)(=O)NC2CCCCC2)cc1 | 2.87 |
| COc1ccc(S(=O)(=O)Nc2ccc(F)cc2)cc1N(C)S(=O)(=O)c1ccc(Cl)cc1 | 4.94 |
| CCCNC(=O)NC[C@@H]1[C@@H](c2ccc(C3=CCCCC3)cc2)[C@H](CO)N1C(C)=O | 2.47 |
| CC(=O)Nc1ccc(S(=O)(=O)Nc2cccc(-c3csc(C)n3)c2)cc1 | 8.21 |
| CCN1C(=O)c2cccc3c(S(=O)(=O)NCCc4c[nH]c5ccccc45)ccc1c23 | 3.09 |
| O=S(=O)(Nc1ncnc2c1oc1ccccc12)c1ccc(Cl)s1 | 18.8 |
| Cc1cccc(NS(=O)(=O)c2cc3c4c(c2)CCC(=O)N4CCC3)c1 | 1.94 |
| Cc1cc(C)c(C)c(S(=O)(=O)Nc2ccc(C(=O)N3CCCC3)cc2)c1C | 2 |
| CCc1ccc(-c2cc(C)no2)cc1S(=O)(=O)NCCc1ccc(OC)c(OC)c1 | 7.43 |
| CC(C)(C)C(=O)Nc1cc(S(=O)(=O)Nc2ccc(Cl)cc2)ccc1O | 13.8 |
| C[C@@H]1CN([C@@H](C)CO)C(=O)c2cccc(NC(=O)Nc3ccccc3)c2O[C@H]1CN(C)Cc1ccc(C(F)(F)F)cc1 | 2.49 |
| Cc1ccc(OP(=O)(Nc2cccc(C)c2)Oc2ccc(C)cc2)cc1 | 6.66 |
